Measurements published in patent US10017504B2, “Piperidine isoxazole and isothiazole orexin receptor antagonists” (MERCK SHARP & DOHME CORP., priority 2014, dated 2018).

Biological target: human orexin-2 receptor (Homo sapiens (Human), UniProt O43614)
Experiment: FLIPR Ca2+ Flux Assay, orexin-2 receptor
Type: cell-based
Settings: CHO cells expressing the human orexin-2 receptor; agonist 70 pM Ala-6,12 human orexin-A; read-out: hOX2 FLIPR IC50
Description: In a typical experiment the OX1 and OX2 receptor antagonistic activity of the compounds of the present invention was determined in accordance with the following experimental method. For intracellular calcium measurements, Chinese hamster ovary (CHO) cells expressing the rat orexin-1 receptor or the human orexin-2 receptor, are grown in Iscove's modified DMEM containing 2 mM L-glutamine, […], 1% hypoxanthine-thymidine supplement, 100 U/ml penicillin, 100 μg/ml streptomycin and 10% heat-inactivated fetal calf serum (FCS). The cells are seeded at 20,000 cells/well into Becton-Dickinson black 384-well clear bottom sterile plates coated with poly-D-lysine. All reagents are from GIBCO-Invitrogen Corp. The seeded plates are incubated overnight at 37° C. and 5% CO2. Ala-6,12 human orexin-A as the agonist is prepared as a 1 mM stock solution in 1% bovine serum albumin (BSA) and diluted in assay buffer (HBSS containing 20 mM HEPES, 0.1% BSA and 2.5 mM probenecid, pH7.4) for use in the assay at a final concentration of 70 pM. Test compounds are prepared as 10 mM stock solution in DMSO, then diluted in 384-well plates, first in DMSO, then assay buffer. On the day of the assay, cells are washed 3 times with 100 μl assay buffer and then incubated for 60 min (37° C., 5% CO2) in 60 μl assay buffer containing 1 μM Fluo-4AM ester, 0.02% pluronic acid, and 1% BSA. The dye loading solution is then aspirated and cells are washed 3 times with 100 μl assay buffer. 30 μl of that same buffer is left in each well. Within the Fluorescent Imaging Plate Reader (FLIPR, Molecular Devices), test compounds are added to the plate in a volume of 25 μl, incubated for 5 min and finally 25 μl of agonist is added. Fluorescence is measured for each well at 1 second intervals for 5 minutes and the height of each fluorescence peak is compared to the height of the fluorescence peak induced by 70 pM Ala-6,12 orexin-A with buffer in place of antagonist. […] The intrinsic orexin receptor antagonist activity of a compound which may be used in the present invention may be determined by these assays.

human orexin-2 receptor, sequence (O43614 whole entry): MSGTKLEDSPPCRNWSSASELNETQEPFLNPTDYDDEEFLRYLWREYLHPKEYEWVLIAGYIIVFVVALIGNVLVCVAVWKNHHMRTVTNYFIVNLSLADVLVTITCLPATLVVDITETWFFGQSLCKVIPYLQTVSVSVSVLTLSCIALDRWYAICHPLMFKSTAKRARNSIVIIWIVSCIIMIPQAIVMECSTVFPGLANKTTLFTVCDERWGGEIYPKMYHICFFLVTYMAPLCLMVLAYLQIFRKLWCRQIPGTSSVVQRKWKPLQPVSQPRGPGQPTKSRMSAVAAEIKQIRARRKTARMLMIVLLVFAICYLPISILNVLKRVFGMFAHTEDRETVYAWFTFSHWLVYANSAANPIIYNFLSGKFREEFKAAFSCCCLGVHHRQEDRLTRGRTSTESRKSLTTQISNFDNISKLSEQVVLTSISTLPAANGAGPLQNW

Row | SMILES | IC50 [nM]
1 | C[C@@H]1CC[C@@H](c2cc(C(C)(C)O)no2)CN1C(=O)c1ccccc1-n1ncnn1 [Example 32, 2-{5-[(3R,6R)-6-Methyl-1-{[2-(2H-tetrazol-2-yl)phenyl]carbonyl}piperidin-3-yl]isoxazol-3-yl}propan-2-ol] | 124
2 | C[C@@H]1CC[C@@H](c2cc(C(C)(C)O)no2)CN1C(=O)c1cccnc1-c1ccccc1 [Example 33, 2-(5-{(3R,6R)-6-Methyl-1-[(2-phenylpyridin-3-yl)carbonyl]piperidin-3-yl}isoxazol-3-yl)propan-2-ol] | 134
3 | C[C@@H]1CC[C@@H](c2cc(C(C)(C)O)no2)CN1C(=O)c1ncccc1-c1ccccc1 [Example 34, 2-(5-{(3R,6R)-6-Methyl-1-[(3-phenylpyridin-2-yl)carbonyl]piperidin-3-yl}isoxazol-3-yl)propan-2-ol] | 264
4 | C[C@@H]1CC[C@@H](c2cc(C(C)(C)O)no2)CN1C(=O)c1ccccc1OCC(F)F [Example 35, 2-{5-[(3R,6R)-1-{[2-(2,2-Difluoroethoxy)phenyl]carbonyl}-6-methylpiperidin-3-yl]isoxazol-3-yl}propan-2-ol] | 140
5 | C[C@@H]1CC[C@@H](c2cc(C(C)(C)O)no2)CN1C(=O)c1ccccc1OCC(F)(F)F [Example 36, 2-{5-[(3R,6R)-6-Methyl-1-{[2-(2,2,2-trifluoroethoxy)phenyl]carbonyl}piperidin-3-yl]isoxazol-3-yl}propan-2-ol] | 212
6 | C[C@@H]1CC[C@@H](c2cc(C(C)(C)O)no2)CN1C(=O)c1ccccc1-c1cnccn1 [Example 37, 2-(5-{(3R,6R)-6-Methyl-1-[(2-pyrazin-2-ylphenyl)carbonyl]piperidin-3-yl}isoxazol-3-yl)propan-2-ol] | 1030
7 | C[C@@H]1CC[C@@H](c2cc(C(C)(C)O)no2)CN1C(=O)c1ccccc1C1CC1(F)F (stereo partly drawn) [Example 38, 2-{5-[(3R,6R)-1-{[2-(2,2-Difluorocyclopropyl)phenyl]carbonyl}-6-methylpiperidin-3-yl]isoxazol-3-yl}propan-2-ol] | 52.4
8 | CC[C@@H]1CC[C@@H](c2cc(C(C)(C)O)no2)CN1C(=O)c1ccccc1-n1nccn1 [Example 39, 2-{5-[(3R,6R)-6-Ethyl-1-{[2-(2H-1,2,3-triazol-2-yl)phenyl]carbonyl}piperidin-3-yl]isoxazol-3-yl}propan-2-ol] | 42.4
9 | C[C@@H]1CC[C@@H](c2cc([C@@H](O)C(F)(F)F)no2)CN1C(=O)c1ccccc1-n1nccn1 [Example 40, (1R)-2,2,2-Trifluoro-1-{5-[(3R,6R)-6-methyl-1-{[2-(2H-1,2,3-triazol-2-yl)phenyl]carbonyl}piperidin-3-yl]isoxazol-3-yl}ethanol] | 11
10 | C[C@@H]1CC[C@@H](c2cc([C@H](O)C(F)(F)F)no2)CN1C(=O)c1ccccc1-n1nccn1 [Example 41, (1S)-2,2,2-trifluoro-1-{5-[(3R,6R)-6-methyl-1-{[2-(2H-1,2,3-triazol-2-yl)phenyl]carbonyl}piperidin-3-yl]isoxazol-3-yl}ethanol] | 17.5
11 | C[C@@H]1CC[C@@H](c2cc([C@@H](O)C(F)(F)F)no2)CN1C(=O)c1ccsc1-n1nccn1 [Example 42, (1R)-2,2,2-Trifluoro-1-{5-[(3R,6R)-6-methyl-1-{[2-(2H-1,2,3-triazol-2-yl)thiophen-3-yl]carbonyl}piperidin-3-yl]isoxazol-3-yl}ethanol] | 154
12 | C[C@@H]1CC[C@@H](c2cc([C@H](O)C(F)(F)F)no2)CN1C(=O)c1ccsc1-n1nccn1 [Example 43, (1S)-2,2,2-trifluoro-1-{5-[(3R,6R)-6-methyl-1-{[2-(2H-1,2,3-triazol-2-yl)thiophen-3-yl]carbonyl}piperidin-3-yl]isoxazol-3-yl}ethanol] | 162
13 | C[C@@H]1CC[C@@H](c2cc([C@@H](O)C(F)(F)F)no2)CN1C(=O)c1ccccc1C1(C#N)CC1 [Example 44, 1-(2-{[(2R,5R)-2-Methyl-5-{3-[(1R)-2,2,2-Trifluoro-1-hydroxyethyl]isoxazol-5-yl}piperidin-1-yl]carbonyl}phenyl)cyclopropanecarbonitrile] | 26.8
14 | C[C@@H]1CC[C@@H](c2cc([C@H](O)C(F)(F)F)no2)CN1C(=O)c1ccccc1C1(C#N)CC1 [Example 45, 1-(2-{[(2R,5R)-2-Methyl-5-{3-[(1S)-2,2,2-trifluoro-1-hydroxyethyl]isoxazol-5-yl}piperidin-1-yl]carbonyl}phenyl)cyclopropanecarbonitrile] | 41.2
15 | C[C@@H]1CC[C@@H](c2cc([C@@H](O)C(F)(F)F)no2)CN1C(=O)c1ccccc1-n1ncnn1 [Example 46, (1R)-2,2,2-Trifluoro-1-{5-[(3R,6R)-6-methyl-1-{[2-(2H-tetrazol-2-yl)phenyl]carbonyl}piperidin-3-yl]isoxazol-3-yl}ethanol] | 356
16 | C[C@@H]1CC[C@@H](c2cc([C@H](O)C(F)(F)F)no2)CN1C(=O)c1ccccc1-n1ncnn1 [Example 47, (1S)-2,2,2-Trifluoro-1-{5-[(3R,6R)-6-methyl-1-{[2-(2H-tetrazol-2-yl)phenyl]carbonyl}piperidin-3-yl]isoxazol-3-yl}ethanol] | 328
17 | C[C@@H]1CC[C@@H](c2cc([C@H](O)C(F)(F)F)no2)CN1C(=O)c1ccsc1-c1ncccn1 [Example 48, (1S)-2,2,2-Trifluoro-1-(5-{(3R,6R)-6-methyl-1-[(2-pyrimidin-2-ylthiophen-3-yl)carbonyl]piperidin-3-yl}isoxazol-3-yl)ethanol] | 113
18 | C[C@@H]1CC[C@@H](c2cc([C@@H](O)C(F)(F)F)no2)CN1C(=O)c1ccsc1-c1ncccn1 [Example 49, (1R)-2,2,2-Trifluoro-1-(5-{(3R,6R)-6-methyl-1-[(2-pyrimidin-2-ylthiophen-3-yl)carbonyl]piperidin-3-yl}isoxazol-3-yl)ethanol] | 112
19 | C[C@@H]1CC[C@@H](c2cc([C@@H](O)C(F)(F)F)no2)CN1C(=O)c1ccccc1-c1ncccn1 [Example 50, (1R)-2,2,2-Trifluoro-1-(5-{(3R,6R)-6-methyl-1-[(2-pyrimidin-2-ylphenyl)carbonyl]piperidin-3-yl}isoxazol-3-yl)ethanol] | 110
20 | C[C@@H]1CC[C@@H](c2cc([C@H](O)C(F)(F)F)no2)CN1C(=O)c1ccccc1-c1ncccn1 [Example 51, (1S)-2,2,2-trifluoro-1-(5-{(3R,6R)-6-methyl-1-[(2-pyrimidin-2-ylphenyl)carbonyl]piperidin-3-yl}isoxazol-3-yl)ethanol] | 146
21 | CCC(C)(O)c1cc([C@@H]2CC[C@@H](C)N(C(=O)c3ccccc3-n3nccn3)C2)on1 (stereo partly drawn) [Example 54, 2-{5-[(3R,6R)-6-Methyl-1-{[2-(2H-1,2,3-triazol-2-yl)phenyl]carbonyl}piperidin-3-yl]isoxazol-3-yl}butan-2-ol] | 76.1
22 | CCC(C)(O)c1cc([C@@H]2CC[C@@H](C)N(C(=O)c3ccccc3-n3nccn3)C2)on1 (stereo partly drawn) [Example 55, 2-{5-[(3R,6R)-6-Methyl-1-{[2-(2H-1,2,3-triazol-2-yl)phenyl]carbonyl}piperidin-3-yl]isoxazol-3-yl}butan-2-ol] | 39.8
23 | C[C@@H]1CC[C@@H](c2cc(C3CCCO3)no2)CN1C(=O)c1ccccc1-n1nccn1 (stereo partly drawn) [Example 56, (2R,5R)-2-Methyl-5-[3-(tetrahydrofuran-2-yl)isoxazol-5-yl]-1-{[2-(2H-1,2,3-triazol-2-yl)phenyl]carbonyl}piperidine] | 311
24 | COC(C)(C)c1cc([C@@H]2CC[C@@H](C)N(C(=O)c3ccccc3-n3nccn3)C2)on1 [Example 57, (2R,5R)-5-[3-(1-Methoxy-1-methylethyl)isoxazol-5-yl]-2-methyl-1-{[2-(2H-1,2,3-triazol-2-yl)phenyl]carbonyl}piperidine] | 14.4
25 | C[C@@H]1CC[C@@H](c2cc(C(C)(C)O)sn2)CN1C(=O)c1ccccc1-n1nccn1 [Example 58, 2-{3-[(3R,6R)-6-Methyl-1-{[2-(2H-1,2,3-triazol-2-yl)phenyl]carbonyl}piperidin-3-yl]isothiazol-5-yl}propan-2-ol] | 13.9
26 | C[C@@H]1CC[C@@H](c2cc(C(C)(C)O)sn2)CN1C(=O)c1ccccc1-n1ncnn1 [Example 60, 2-{3-[(3R,6R)-6-Methyl-1-{[2-(2H-tetrazol-2-yl)phenyl]carbonyl}piperidin-3-yl]isothiazol-5-yl}propan-2-ol] | 63.8
27 | C[C@@H]1CC[C@@H](c2cc(C(C)(C)O)sn2)CN1C(=O)c1ccc(F)cc1-n1nccn1 [Example 61, 2-{3-[(3R,6R)-1-{[4-Fluoro-2-(2H-1,2,3-triazol-2-yl)phenyl]carbonyl}-6-methylpiperidin-3-yl]isothiazol-5-yl}propan-2-ol] | 18.6
